# Laboratory results published in PubChem BioAssay (NCI).
# “And” between values parts separate entries of the source, which are not always exact repeats. Equal values may be shown once.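 Briefly, cells in 96-well plates were exposed to five compound concentrations for 48 h, and endpoints were estimated by linear interpolation. GI50: concentration for 50% inhibition of growth. TGI denotes the concentration required for complete inhibition of growth.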
# Tests used:
# Assay in all cases: NCI-60 cell line screen, 48 h
# BT-549 breast = system: BT-549 breast
# RXF 393 renal = system: RXF 393 renal
# NCI-H460 lung = system: NCI-H460 lung
# CCRF-CEM leukemia = system: CCRF-CEM leukemia
# OVCAR-8 ovarian = system: OVCAR-8 ovarian
# SNB-19 CNS = system: SNB-19 CNS
# HL-60(TB) leukemia = system: HL-60(TB) leukemia
# NCI-H226 lung = system: NCI-H226 lung
SMILES,GI50 (BT-549 breast),TGI (BT-549 breast),GI50 (RXF 393 renal),TGI (RXF 393 renal),GI50 (NCI-H460 lung),TGI (NCI-H460 lung),GI50 (CCRF-CEM leukemia),TGI (CCRF-CEM leukemia),GI50 (OVCAR-8 ovarian),TGI (OVCAR-8 ovarian),GI50 (SNB-19 CNS),TGI (SNB-19 CNS),GI50 (HL-60(TB) leukemia),TGI (HL-60(TB) leukemia),GI50 (NCI-H226 lung),TGI (NCI-H226 lung)
O=C(CCC(C(=O)c1ccccc1)c1ccccc1)c1ccccc1 (configuration not stated),7.92 µM,86.7 µM,11.8 µM,> 100 µM,6.5 µM,> 100 µM,3.97 µM,77.2 µM,21.6 µM,> 100 µM,73.8 µM,> 100 µM,4.72 µM,55.9 µM,–,–
Nc1c(C(=O)c2ccc(CCCN3CCOCC3)cc2)cnn1-c1ccc(F)cc1,> 25 µM,> 25 µM,> 25 µM,> 25 µM,> 25 µM,> 25 µM,> 25 µM,> 25 µM,> 25 µM,> 25 µM,> 25 µM,> 25 µM,> 25 µM,> 25 µM,> 15.2 µM,> 25 µM
CSc1ncnc2c1ncn2C1OC(CO)C(O)OC1O (configuration not stated),–,48.5 µM,–,38 µM,–,16 µM,–,0.402 µM,–,52.4 µM,–,51.5 µM,–,11.7 µM,–,–
OCC1OC(n2cnc3c(Cl)nc(Cl)cc32)C(O)C1O (configuration not stated),> 100 µM,> 100 µM,> 100 µM,> 100 µM,> 100 µM,> 100 µM,> 100 µM,> 100 µM,> 100 µM,> 100 µM,> 100 µM,> 100 µM,> 100 µM,> 100 µM,–,–
CC[C@@]1(O)C(=O)OCc2c1cc1n(c2=O)Cc2c-1nc1cc3c(cc1c2C)OCO3,0.0205 µM,–,0.000755 µM,0.141 µM and 0.0175 µM,< 0.0001 µM,0.0868 µM and 0.0135 µM,< 0.0001 µM,–,< 0.0001 µM,–,0.000473 µM,0.0131 µM,< 0.0001 µM,–,< 0.0001 µM,0.0195 µM
NC1=NCCN1CC(=O)O,> 10000 µM,> 10000 µM,> 10000 µM,> 10000 µM,> 10000 µM,> 10000 µM,> 10000 µM,> 10000 µM,> 10000 µM,> 10000 µM,> 10000 µM,> 10000 µM,–,> 1000 µM,> 10000 µM,> 10000 µM
c1ccc(CN=C(NCc2ccccc2)NCc2ccccc2)cc1,–,–,14.3 µM,28.2 µM,5.1 µM,19.5 µM,10.2 µM,62.5 µM,6.44 µM,21.8 µM,11 µM,25 µM,2.69 µM,13.2 µM,6.04 µM,21.4 µM
COc1ccc(-c2c(-c3cc(OC)c(OC)c(OC)c3)noc2N)cc1,0.0215 µM,0.0673 µM,< 0.01 µM,19.8 µM,< 0.015 µM,> 33.8 µM,0.0307 µM,> 100 µM,0.0173 µM,15.8 µM,0.0342 µM,> 100 µM,0.0215 µM,0.0589 µM,0.0244 µM,> 100 µM
C=C1C(=O)O[C@@H]2C1C[C@@H](O)C(=C)CC/C=C(\C)CCC[C@H](C)[C@H]2OC(C)=O (some centres not stated),2.73 µM,7.46 µM,4.15 µM,20.9 µM,18.2 µM,41.4 µM,2.34 µM,5.05 µM,15.4 µM,45.4 µM,27.1 µM,> 100 µM,–,–,3.37 µM,12.8 µM
CC(=O)[C@@]1(O)[C@H](C)C[C@H]2[C@@H]3C=C(C)C4=Cc5c(cnn5-c5ccccc5)C[C@]4(C)[C@H]3[C@@H](O)C[C@@]21C,1.29 µM,5.17 µM,1.31 µM,6.42 µM,1.4 µM,3.69 µM,–,1.72 µM,2.8 µM,13.8 µM,3.29 µM,14.2 µM,3.62 µM,41.9 µM,2.5 µM,15.7 µM
O=c1oc2ccc(-n3c(=O)c4ccccc4c4ccccc4c3=O)cc2c2ccccc12,–,> 100 µM,–,> 100 µM,–,> 100 µM,–,> 100 µM,–,> 100 µM,–,> 100 µM,–,> 100 µM,–,> 100 µM
Cc1cc(Oc2ccc3nc(COc4ccc(CC5SC(=O)NC5=O)cc4)n(C)c3c2)cc(C)c1N (configuration not stated),24.2 µM,> 79.2 µM,50.8 µM,> 100 µM,26.6 µM,> 90.7 µM,30.9 µM,> 100 µM,31.2 µM,> 86.5 µM,42.2 µM,> 100 µM,26.8 µM,88 µM,46.8 µM,> 95.7 µM
Cc1cc(O)cc(C)c1/C=C/c1cncc(-c2nn[nH]n2)c1,> 25 µM,> 25 µM,> 25 µM,> 25 µM,> 25 µM,> 25 µM,> 25 µM,> 25 µM,> 25 µM,> 25 µM,> 25 µM,> 25 µM,> 25 µM,> 25 µM,> 25 µM,> 25 µM
CCc1cc2c(cc1N1CCC(N3CCOCC3)CC1)C(C)(C)c1[nH]c3cc(C#N)ccc3c1C2=O,1.49 µM and 1.6 µM,3.69 µM and 3.87 µM,1.5 µM and 1.53 µM,3.47 µM and 3.78 µM and 3.84 µM,1.47 µM and 1.74 µM and 1.68 µM,4.03 µM and 4.17 µM and 7.64 µM,0.745 µM and 0.826 µM and 1.54 µM,> 100 µM,0.648 µM and 0.935 µM and 1.3 µM,2.48 µM and 3.11 µM and 3.57 µM,1.66 µM and 1.79 µM and 3.17 µM,4.02 µM and 4.44 µM and > 10 µM,1.7 µM and 1.02 µM and 0.443 µM,> 100 µM,1.75 µM and 1.63 µM and 1.61 µM,4.32 µM and 3.97 µM and 5.19 µM
C=C(C)[C@@H]1CC[C@]2(CO)CC[C@]3(C)[C@H](CC[C@@H]4[C@@]5(C)CCC(NCCc6ccc(O)cc6)C(C)(C)[C@@H]5CC[C@]43C)[C@@H]12 (some centres not stated),1.75 µM,3.27 µM,–,–,1.53 µM,3 µM,1.67 µM,4.14 µM,–,–,–,–,1.49 µM,3.67 µM,–,–
C[C@H]1[C@H]2[C@H]3CC[C@@H]4[C@@]5(C)C/C(=C/c6cccnc6)C(=O)C(C)(C)[C@@H]5CC[C@@]4(C)[C@]3(C)CC[C@]23CO[C@]1(C)[C@@H](C(=O)/C=C\c1cccnc1)C3,0.785 µM,1.83 µM,0.824 µM,1.56 µM,0.929 µM,1.94 µM,0.44 µM,> 50 µM,1.59 µM,> 50 µM,0.869 µM,1.76 µM,0.794 µM,2.53 µM,0.97 µM,2.1 µM
